In patent US20220016060A1, “USE OF SODIUM 2-(3-PENTYLPHENYL)ACETATE IN THE TREATMENT OF ALSTRÖM SYNDROME” (LIMINAL BIOSCIENCES LIMITED, priority 2018, published 2022):
“And” between values parts separate entries of the source, which are not always exact repeats. Equal entries are not always repeated.

How the values were obtained:
Type in all cases: in vivo, human
ALMS patients [1] = test: Fasting plasma glucose (FPG); details: for Change from Baseline FPG, Mean / Change from Baseline FPG, Median / FPG: 800 mg daily oral; for FPG: individual subjects
Experimental: (§1) The study was a Phase 2, single-centre, single-arm, open-label study of sodium 2-(3-pentylphenyl)acetate administered at a total daily oral dose of 800 mg for up to 72 weeks in subjects with ALMS was undertaken. The initial duration of the study was 24 weeks, and subjects were offered to enrol into an extension phase of 36 or 48 weeks. The schedule of study procedures for the enrolment, intervention, and assessments for participants is outlined in FIG. 1. Sodium 2-(3-pentylphenyl)acetate was formulated in soft gelatine capsules containing 200 mg of Sodium 2-(3-pentylphenyl)acetate (amorphous powder) per capsule, polyethylene glycol 400, National Formulary (NF), hydrochloric acid (for pH adjustment), and water.

ALMS patients [2] = test: Histological examination of adipocyte tissue artery (perivascular adipose tissue); details: an ALMS subject; after 24 weeks of treatment with 800 mg; FIG. 3B
Experimental: as §1, with “water. Baseline histological examination of an adipocyte tissue artery (perivascular adipose tissue) in an ALMS subject was characterized by signs of dystrophy, homogenized blurred cytoplasm in smooth muscle cells, and nuclei with irregular shape (FIG. 3A).” for “water.”

ALMS patients [3] = test: Cardiac MRI of myocardial fibrosis (SAX T1); details: for Change from Baseline Basal SAX T1, Mean / Change from Baseline Basal SAX T1, Median / Change from Baseline Mid SAX T1, Mean / Change from Baseline Mid SAX T1, Median: 800 mg daily oral
Experimental: as §1, with “water. The effect of sodium 2-(3-pentylphenyl)acetate on heart histology in ALMS patients was also assessed by measuring short-axis (plane) longitudinal relaxation time (SAX T1). A decrease in relaxation time reflects an improvement in heart histology, such as a decrease of myocardial fibrosis, which reduces the risk of cardiac failure.” for “water.”

ALMS patients [4] = test: Non-Alcoholic Fatty Liver Disease (NAFLD) Fibrosis Score; details: for Change from Baseline NAFLD Score with an FPG > 5.6 mmol/L, Mean (SD) / Change from Baseline NAFLD Score with an FPG > 5.6 mmol/L, Median / NAFLD Fibrosis Score in Subjects with an FPG > 5.6 mmol/L: 800 mg daily oral; for NAFLD Fibrosis Score in Subjects with an FPG > 5.6 mmol/L: individual subjects
Experimental: as §1, with “water. The effect of sodium 2-(3-pentylphenyl)acetate on liver histology in ALMS patients was also assessed by measuring the Non-Alcoholic Fatty Liver Disease (NAFLD) Fibrosis Score. Increased NAFLD fibrosis score may be associated with hepatic dysfunction.” for “water.”

[5] = Subject 826-001-001, 204-day break in treatment

CCCCCc1cccc(CC(=O)[O-])c1.[Na+] [sodium 2-(3-pentylphenyl)acetate]
Change from Baseline FPG, Mean (ALMS patients [1]; EP Week 12 (Week 36), N=10): 0.63 mmol/L | Change from Baseline FPG, Median (ALMS patients [1]; EP Week 12 (Week 36), N=10): -0.10 mmol/L | Change from Baseline FPG, Mean (ALMS patients [1]; EP Week 24 (Week 48), N=10): 0.70 mmol/L | Change from Baseline FPG, Median (ALMS patients [1]; EP Week 24 (Week 48), N=10): -0.10 mmol/L | Change from Baseline FPG, Mean (ALMS patients [1]; EP Week 36 (Week 60), N=9): 1.49 mmol/L | Change from Baseline FPG, Median (ALMS patients [1]; EP Week 36 (Week 60), N=9): 0.00 mmol/L | Change from Baseline FPG, Mean (ALMS patients [1]; EP Week 48 (Week 72), N=3): -0.93 mmol/L | Change from Baseline FPG, Median (ALMS patients [1]; EP Week 48 (Week 72), N=3): 0.00 mmol/L | increase in FPG from baseline (ALMS patients [1]; [5]): 7.4 mmol/L | increase in FPG from baseline (ALMS patients [1]; Subject 826-001-007, 32-day break in treatment): 7.9 mmol/L | Change from Baseline FPG, Mean (ALMS patients [1]; Week 12, N=11): 0.30 mmol/L | Change from Baseline FPG, Median (ALMS patients [1]; Week 12, N=11): -0.40 mmol/L | Change from Baseline FPG, Mean (ALMS patients [1]; Week 24, N=12): 0.33 mmol/L | Change from Baseline FPG, Median (ALMS patients [1]; Week 24, N=12): 0.30 mmol/L | FPG (ALMS patients [1]; EP Week 12 (Week 36)): 18.0 mmol/L and 4.8 mmol/L and 4.3 mmol/L and 5.2 mmol/L and 9.1 mmol/L and 4.4 mmol/L and 6.5 mmol/L and 6.6 mmol/L and 5.5 mmol/L and 19.9 mmol/L | FPG (ALMS patients [1]; EP Week 24 (Week 48)): 23.3 mmol/L and 3.8 mmol/L and 4.7 mmol/L and 6.9 mmol/L and 10.2 mmol/L and 4.8 mmol/L and 5.7 mmol/L and 6.2 mmol/L and 5.6 mmol/L and 13.8 mmol/L | FPG (ALMS patients [1]; EP Week 36 (Week 60)): 22.7 mmol/L and 5.0 mmol/L and 4.6 mmol/L and 13.8 mmol/L and 5.3 mmol/L (2×) and 4.7 mmol/L and 8.6 mmol/L and 14.9 mmol/L | FPG (ALMS patients [1]; EP Week 48 (Week 72)): 12.5 mmol/L and 5.5 mmol/L and 4.7 mmol/L | FPG (ALMS patients [1]; Week 12): 22.8 mmol/L and 4.6 mmol/L and 4.3 mmol/L and 5.3 mmol/L and 16.9 mmol/L and 7.0 mmol/L and 5.5 mmol/L and 17.6 mmol/L and 6.5 mmol/L and 5.0 mmol/L and 4.7 mmol/L | FPG (ALMS patients [1]; Week 24): 12.9 mmol/L and 4.9 mmol/L and 4.7 mmol/L and 5.7 mmol/L and 11.1 mmol/L and 4.8 mmol/L and 7.2 mmol/L and 7.4 mmol/L and 22.6 mmol/L and 6.5 mmol/L and 13.5 mmol/L and 6.1 mmol/L | histological examination of adipocyte tissue artery (ALMS patients [2]): the adipocyte tissue artery looked more normal | Change from Baseline Basal SAX T1, Mean (ALMS patients [3]; EP Week 36 (Week 60), N=4): -84.75 ms | Change from Baseline Basal SAX T1, Median (ALMS patients [3]; EP Week 36 (Week 60), N=4): -80.50 ms | Change from Baseline Mid SAX T1, Mean (ALMS patients [3]; EP Week 36 (Week 60), N=4): -54.63 ms | Change from Baseline Mid SAX T1, Median (ALMS patients [3]; EP Week 36 (Week 60), N=4): -51.00 ms | Change from Baseline Basal SAX T1, Mean (ALMS patients [3]; Week 24, N=9): -10.67 ms | Change from Baseline Basal SAX T1, Median (ALMS patients [3]; Week 24, N=9): -1.50 ms | Change from Baseline Mid SAX T1, Mean (ALMS patients [3]; Week 24, N=9): -4.11 ms | Change from Baseline Mid SAX T1, Median (ALMS patients [3]; Week 24, N=9): 0.00 ms | mean decrease in Basal SAX T1 from baseline (ALMS patients [3]; after 60 weeks of treatment, p=0.0274): 84.75 ms | mean decrease in Mid SAX T1 from baseline (ALMS patients [3]; after 60 weeks of treatment, p=0.0349): 54.63 ms | subjects in whom NAFLD fibrosis score decreased or did not change from baseline (ALMS patients [4]; 7/12 subjects): 58.3% | Change from Baseline NAFLD Score with an FPG > 5.6 mmol/L, Mean (SD) (ALMS patients [4]; EP Week 12 (Week 36), N=10): −0.39 (0.683) | Change from Baseline NAFLD Score with an FPG > 5.6 mmol/L, Median (ALMS patients [4]; EP Week 12 (Week 36), N=10): −0.69 | Change from Baseline NAFLD Score with an FPG > 5.6 mmol/L, Mean (SD) (ALMS patients [4]; EP Week 24 (Week 48), N=9): −0.34 (0.758) | Change from Baseline NAFLD Score with an FPG > 5.6 mmol/L, Median (ALMS patients [4]; EP Week 24 (Week 48), N=9): −0.28 | Change from Baseline NAFLD Score with an FPG > 5.6 mmol/L, Mean (SD) (ALMS patients [4]; EP Week 36 (Week 60), N=9): −0.16 (0.684) | Change from Baseline NAFLD Score with an FPG > 5.6 mmol/L, Median (ALMS patients [4]; EP Week 36 (Week 60), N=9): −0.14 | increase in NAFLD fibrosis score from baseline (ALMS patients [4]; [5]): 0.7 | Change from Baseline NAFLD Score with an FPG > 5.6 mmol/L, Mean (SD) (ALMS patients [4]; Week 12, N=11): −0.35 (0.582) | Change from Baseline NAFLD Score with an FPG > 5.6 mmol/L, Median (ALMS patients [4]; Week 12, N=11): −0.34 | Change from Baseline NAFLD Score with an FPG > 5.6 mmol/L, Mean (SD) (ALMS patients [4]; Week 24, N=9): 0.16 (0.446) | Change from Baseline NAFLD Score with an FPG > 5.6 mmol/L, Median (ALMS patients [4]; Week 24, N=9): 0.21 | NAFLD Fibrosis Score in Subjects with an FPG > 5.6 mmol/L (ALMS patients [4]; EP Week 12 (Week 36)): −1.9 and −3.1 and −3.8 (4×) and −1.6 and −1.2 and 0.2 and −3.6 | NAFLD Fibrosis Score in Subjects with an FPG > 5.6 mmol/L (ALMS patients [4]; EP Week 24 (Week 48)): −1.9 and −4.4 and −3.0 and −3.8 and −0.8 and −1.0 and −3.1 and 0.5 and −4.2 | NAFLD Fibrosis Score in Subjects with an FPG > 5.6 mmol/L (ALMS patients [4]; EP Week 36 (Week 60)): −1.5 and −3.7 and −2.9 (2×) and −4.2 and −1.1 and 0.2 and −3.4 and −3.8 | NAFLD Fibrosis Score in Subjects with an FPG > 5.6 mmol/L (ALMS patients [4]; Week 12): −2.5 and −1.8 and −3.9 (2×) and −3.1 and −1.4 and −0.8 (2×) and −3.3 and 0.6 and −4.3 | NAFLD Fibrosis Score in Subjects with an FPG > 5.6 mmol/L (ALMS patients [4]; Week 24): −1.5 and −1.9 and −2.7 (2×) and −3.8 and −0.2 and −2.9 and −1.0 and −3.7
